In paper doi:10.1101/2022.05.18.492512v2 (biorxiv, 2022):
Numbering of substitutions follows the chain as printed.

What was measured:
ABCG5/G8 [1] = target: T1, ABCG5/G8 (Homo sapiens, UniProt Q9H221+Q9H222); assay: [3H]cholesterol binding, Ni-NTA bead pull-down, scintillation counting
T1 sequence (Q9H222 1-651): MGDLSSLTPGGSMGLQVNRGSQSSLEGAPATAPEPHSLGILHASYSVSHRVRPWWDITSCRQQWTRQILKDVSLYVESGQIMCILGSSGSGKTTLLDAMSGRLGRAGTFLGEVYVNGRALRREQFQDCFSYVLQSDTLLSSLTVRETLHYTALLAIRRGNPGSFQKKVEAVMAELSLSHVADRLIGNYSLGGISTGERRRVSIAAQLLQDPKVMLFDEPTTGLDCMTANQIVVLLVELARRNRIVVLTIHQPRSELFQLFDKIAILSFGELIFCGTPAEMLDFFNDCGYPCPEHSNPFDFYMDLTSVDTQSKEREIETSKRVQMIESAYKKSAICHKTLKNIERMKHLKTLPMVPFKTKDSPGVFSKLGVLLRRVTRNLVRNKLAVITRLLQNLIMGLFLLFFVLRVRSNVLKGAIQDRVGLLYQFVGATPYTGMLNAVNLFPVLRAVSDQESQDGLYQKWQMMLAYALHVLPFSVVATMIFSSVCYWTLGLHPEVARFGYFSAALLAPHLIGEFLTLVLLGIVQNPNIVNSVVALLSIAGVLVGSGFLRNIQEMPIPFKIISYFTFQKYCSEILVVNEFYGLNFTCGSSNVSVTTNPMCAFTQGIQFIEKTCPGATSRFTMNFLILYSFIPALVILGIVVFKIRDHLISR
T1 sequence (Q9H221 1-673): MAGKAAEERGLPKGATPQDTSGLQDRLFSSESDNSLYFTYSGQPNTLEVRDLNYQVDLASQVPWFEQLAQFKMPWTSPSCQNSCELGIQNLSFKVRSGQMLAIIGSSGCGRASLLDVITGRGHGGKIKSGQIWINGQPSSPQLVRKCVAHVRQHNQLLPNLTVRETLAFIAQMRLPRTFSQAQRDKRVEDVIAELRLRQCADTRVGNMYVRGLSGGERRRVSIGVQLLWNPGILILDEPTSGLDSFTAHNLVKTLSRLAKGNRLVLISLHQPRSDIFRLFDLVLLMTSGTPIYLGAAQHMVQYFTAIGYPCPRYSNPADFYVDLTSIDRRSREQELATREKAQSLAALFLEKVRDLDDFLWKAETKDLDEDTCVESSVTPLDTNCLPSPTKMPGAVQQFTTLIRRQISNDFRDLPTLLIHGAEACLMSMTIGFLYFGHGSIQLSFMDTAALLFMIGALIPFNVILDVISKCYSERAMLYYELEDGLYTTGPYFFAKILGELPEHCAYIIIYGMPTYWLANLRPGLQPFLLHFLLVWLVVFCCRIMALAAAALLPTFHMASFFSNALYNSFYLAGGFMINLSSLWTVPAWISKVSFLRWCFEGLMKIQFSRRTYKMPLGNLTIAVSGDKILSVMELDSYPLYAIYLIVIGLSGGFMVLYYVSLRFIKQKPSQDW

ABCG5/G8 [2] = target: T2, ABCG5/G8 (Homo sapiens, UniProt Q9H221+Q9H222, Q9H222:A540F); assay: as above
T2 sequence (Q9H222 1-651 A540F): T1 sequence (Q9H222 1-651) with A540F
T2 sequence (Q9H221 1-673): T1 sequence (Q9H221 1-673)

Compound: CC(C)CCC[C@@H](C)[C@H]1CC[C@H]2[C@@H]3CC=C4C[C@@H](O)CC[C@]4(C)[C@H]3CC[C@]12C [cholesterol]
- Kd (ABCG5/G8 [1]): 1460 ± 280 nM
- Kd (ABCG5/G8 [2]): 1550 ± 10 nM
